Test results reported in paper PMC11992618, “Development of cyclopeptide inhibitors specifically disrupting FXR–coactivator interaction in the intestine as a novel therapeutic strategy for MASH” (Life Metabolism, 2025).

Experiments:
MCD diet-induced MASH = MCD diet-induced MASH mice, long-term model; format: in vivo, mouse; details: oral, 4 weeks, DC646 10 mg/kg, GUDCA 50 mg/kg
Procedure: For the long-term MASH model, 8- to 10-week-old male C57BL/6 J mice were fed with an MCS diet or MCD diet for 2 weeks, before the MCD models were administered with vehicle or GUDCA (50 mg/kg), OCA (30 mg/kg), and DC646 (10 mg/kg) for 4 weeks. The serum, liver, and intestine were collected 2 h after the final dosing. Male Fxr^△IE mice (8–10 weeks old) were fed with a GAN diet for 20 weeks and administered with vehicle or DC646 (10 mg/kg) from the 12th week for 8 weeks. The serum, liver, and intestine were collected 2 h after the final dosing.
The intestine and liver were frozen in liquid nitrogen and stored at −80°C. RNA was extracted, and complementary DNA was synthesized from 1 μg total RNA. RT-qPCR was performed on a Bio-Rad CFX384 Touch detection system (Bio-Rad). The primer sequences for RT-qPCR are shown in Supplementary Table S5. RNA levels were analyzed by 2-^ΔΔCt, normalized to 18S ribosomal RNA and expressed as fold change relative to the control group.
Hepatic TG and TC, and plasma ALT and AST levels were measured using commercial kits from Nanjing Jiancheng Bioengineering Institute according to the manufacturer’s instructions. To measure hepatic TG contents, liver tissues (~10 mg) were homogenized in 100 μL 1% TritonX-100 and centrifuged at 3000 rpm for 10 min. Supernatants were collected, and 2 μL samples were incubated with 200 μL reaction buffer at 37°C for 10 min. Hepatic TG or TC levels were read at 510 or 500 nm using a microplate reader (Versamax, Molecular Devices) and normalized using the protein concentration. To measure plasma ALT and AST levels, reaction buffer 1 and reaction buffer 2 were mixed at a ratio of 1:1, before adding 2 μL plasma sample and 200 μL mixed reaction buffer in a 96-well plate. The data were acquired using the kinetic mode with an interval of 30 s and 31 total reads at 340 nm using a microplate reader (Versamax, Molecular Devices).
Tissue specimens were fixed in 10% formalin for 12–24 h before being dehydrated and paraffin-embedded. The sections were stained with H&E. The NAS was calculated as a summary score including individual components of steatosis (0–3), lobular inflammation (0–3), and hepatocyte ballooning (0–2) for each liver section by a blinded liver pathologist, and the results were reviewed by a blinded hepatologist according to a previous protocol. To visualize liver fibrosis, paraffin-embedded tissue samples were stained with Sirius Red to characterize the collagen deposition. To visualize lipid accumulation and inflammation in the liver, frozen liver sections were stained with Oil Red O and F4/80, and images were acquired using a Leica DM6B laser microdissection system. At least three discontinuous liver sections were evaluated for each mouse.

[1] = biological target: T1, human FXR alpha (hFXRα)-LBD / SRC2-3 peptide (Homo sapiens, UniProt Q96RI1); assay: AlphaScreen assay, recruitment of coactivator peptide SRC2-3 to His-hFXRα-LBD; format: biochemical
T1 construct: 100 nmol/L 6*His-hFXRα-LBD and 100 nmol/L biotinylated co-factor peptide
T1 sequence (Q96RI1 262-486 limits assumed): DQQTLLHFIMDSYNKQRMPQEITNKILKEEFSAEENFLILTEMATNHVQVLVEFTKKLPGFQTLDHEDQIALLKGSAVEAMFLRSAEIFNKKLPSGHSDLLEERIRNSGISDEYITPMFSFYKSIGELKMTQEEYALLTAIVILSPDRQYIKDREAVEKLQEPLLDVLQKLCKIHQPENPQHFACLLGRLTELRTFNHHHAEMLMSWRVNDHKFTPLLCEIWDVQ
Procedure: (§1) An AlphaScreen technology-based assay was performed according to the manufacturer’s instructions with a minor revision. Briefly, the experiment was conducted with compounds at the indicated concentrations, 100 nmol/L 6*His-hFXRα-LBD and 100 nmol/L biotinylated co-factor peptide in the buffer containing 50 mmol/L MOPS, 50 μmol/L CHAPS, 50 mmol/L NaF, and 0.1 mg/mL BSA, pH 7.4. The mixture was incubated with 50 μg/mL nickel acceptor beads and 50 μg/mL streptavidin donor beads in a 384-well plate under green light in the dark at room temperature, before conducting fluorescence measurement with excitation at 680 nm and emission at 550 nm on an Envision microplate analyzer (PE 2102-8340, PerkinElmer Life Sciences).

[2] = biological target: T2, human FXR alpha (hFXRα)-LBD / NcoR2 peptide (Homo sapiens, UniProt Q96RI1); assay: AlphaScreen assay, recruitment of corepressor peptide NcoR2 to His-hFXRα-LBD; format: biochemical; details: compound alone incubated with His-hFXRα-LBD; read-out: EC50 in recruiting the NcoR2 peptide
T2 construct: 100 nmol/L 6*His-hFXRα-LBD and 100 nmol/L biotinylated co-factor peptide
T2 sequence (Q96RI1 262-486 limits assumed): T1 sequence (Q96RI1 262-486 limits assumed)
Procedure: as §1

C[C@H](CCC(=O)NCC(=O)O)[C@H]1CC[C@H]2[C@@H]3[C@@H](O)C[C@@H]4C[C@H](O)CC[C@]4(C)[C@H]3CC[C@]12C [GUDCA, glycoursodeoxycholic acid, reference compound] was tested, and the “Hepatic mRNA levels of inflammation-related genes” value (MCD diet-induced MASH) was “significantly decreased” and the “Hepatic mRNA levels of lipid metabolism-related genes / hepatic lipid accumulation” value (MCD diet-induced MASH; OCA 30 mg/kg) was “only had minor effect”.
For CC[C@H]1[C@@H](O)[C@@H]2[C@H](CC[C@]3(C)[C@@H]([C@H](C)CCC(=O)O)CC[C@@H]23)[C@@]2(C)CC[C@@H](O)C[C@@H]12 [OCA, reference compound], the “Hepatic mRNA levels of lipid metabolism-related genes / hepatic lipid accumulation” value (MCD diet-induced MASH; OCA 30 mg/kg) was “markedly downregulated” and the “Serum alanine aminotransferase (ALT) level” value (MCD diet-induced MASH; OCA 30 mg/kg) was “cannot improve”.
In the case of Ivermectin [reference compound], the EC50 ([1]; compound alone incubated with His-hFXRα-LBD, read-out: EC50 in recruiting the SRC2-3 peptide) is reported as 0.96 µM and the EC50 [2] is reported as 2.19 µM.
With “N,N'-((1^2S,1^4R,14^2S,14^4R,4S,17S)-5,13,18,26-tetraoxo-2^1,15^1-bis(triisopropylsilyl)-2^1H,15^1H-6,19-dioxa-12,25-diaza-1(4,2),14(2,4)-dimorpholina-2,15(4,3)-diindolacyclohexacosaphane-4,17-diyl)bis(1,1,1-trifluoromethanesulfonamide) [DC644]” the “Inhibition of SRC2-3 recruitment in the presence of CDCA (library screen)” value ([1]; DC644 at 10 μmol/L compared with GUDCA and GlyMCA at 50 μmol/L) was “more potent”.
